From patent US12459922B2 (Gilead Sciences, Inc., priority 2022, dated 2025)

system: endogenous cellular STAT1 (phosphorylated at Tyr701) in NCI-H1373 cells; test: Phospho-STAT1 (Tyr701) LANCE Ultra TR-FRET Detection Assay; assay type: cell-based; conditions: Homo sapiens, NCI-H1373, 48 h, phospho-STAT1 (Tyr701) induction, read-out: NH1373 pSTAT1 EC50

Compound	EC50
O=c1[nH]ncc(N[C@H]2CCC[C@@H](Cn3ccc4nc(-c5ccc(C(F)(F)F)cn5)ccc4c3=O)C2)c1C(F)(F)F [Example 273, 6-(((1R,3S)-3-((6-oxo-5-(trifluoromethyl)-1,6-dihydropyridazin-4-yl)amino)cyclohexyl)methyl)-2-(5-(trifluoromethyl)pyridin-2-yl)-1,6-naphthyridin-5(6H)-one]	10000 nM
NC1(c2cnc(-c3cc4ccn(C[C@@H]5CCC[C@H](Nc6cn[nH]c(=O)c6C(F)(F)F)C5)c(=O)c4cc3F)cn2)COC1 [Example 275, 6-(5-(3-aminooxetan-3-yl)pyrazin-2-yl)-7-fluoro-2-(((1R,3S)-3-((6-oxo-5-(trifluoromethyl)-1,6-dihydropyridazin-4-yl)amino)cyclohexyl)methyl)isoquinolin-1(2H)-one]	200 nM
CCNc1cnc(-c2cc3ccn(C[C@@H]4CCC[C@H](Nc5cn[nH]c(=O)c5C(F)(F)F)C4)c(=O)c3cc2F)cn1 [Example 277, 6-(5-(ethylamino)pyrazin-2-yl)-7-fluoro-2-(((1R,3S)-3-((6-oxo-5-(trifluoromethyl)-1,6-dihydropyridazin-4-yl)amino)cyclohexyl)methyl)isoquinolin-1(2H)-one]	348 nM
COc1cnc(-c2cc3ccn(C[C@@H]4CCC[C@H](Nc5cn[nH]c(=O)c5C(F)(F)F)C4)c(=O)c3c(F)c2F)nc1N [Example 278, 6-(4-amino-5-methoxypyrimidin-2-yl)-7,8-difluoro-2-(((1R,3S)-3-((6-oxo-5-(trifluoromethyl)-1,6-dihydropyridazin-4-yl)amino)cyclohexyl)methyl)isoquinolin-1(2H)-one]	4.38 nM
O=c1[nH]ncc(N[C@H]2CCC[C@@H](Cn3c(=O)[nH]c4cc(-c5ncc(C(F)(F)F)cn5)c(F)cc4c3=O)C2)c1C(F)(F)F [Example 281, 6-fluoro-3-(((1R,3S)-3-((6-oxo-5-(trifluoromethyl)-1,6-dihydropyridazin-4-yl)amino)cyclohexyl)methyl)-7-(5-(trifluoromethyl)pyrimidin-2-yl)quinazoline-2,4(1H,3H)-dione]	2.87 nM
Nc1nc(-c2cc3ccn(C[C@@H]4CCC[C@H](Nc5cn[nH]c(=O)c5C(F)(F)F)C4)c(=O)c3cc2F)nc(C2CC2)c1Cl [Example 282, 6-(4-amino-5-chloro-6-cyclopropylpyrimidin-2-yl)-7-fluoro-2-(((1R,3S)-3-((6-oxo-5-(trifluoromethyl)-1,6-dihydropyridazin-4-yl)amino)cyclohexyl)methyl)isoquinolin-1(2H)-one]	80.1 nM
COc1cnc(-c2cc3ccn(CCC[C@H](C)Nc4cn[nH]c(=O)c4C(F)(F)F)c(=O)c3cc2F)nc1N1CC(O)(C(F)(F)F)C1 [Example 286, (S)-7-fluoro-6-(4-(3-hydroxy-3-(trifluoromethyl)azetidin-1-yl)-5-methoxypyrimidin-2-yl)-2-(4-((6-oxo-5-(trifluoromethyl)-1,6-dihydropyridazin-4-yl)amino)pentyl)isoquinolin-1(2H)-one]	61.9 nM
COc1cnc(-c2cc3ncn(CCC[C@H](C)Nc4cn[nH]c(=O)c4C(F)(F)F)c(=O)c3cc2F)nc1N1CC(O)(C(F)(F)F)C1 [Example 287, (S)-6-fluoro-7-(4-(3-hydroxy-3-(trifluoromethyl)azetidin-1-yl)-5-methoxypyrimidin-2-yl)-3-(4-((6-oxo-5-(trifluoromethyl)-1,6-dihydropyridazin-4-yl)amino)pentyl)quinazolin-4(3H)-one]	137 nM
C[C@@H]1[C@H](O)CN1c1nc(-c2cc3ncn(CCC[C@H](C)Nc4cn[nH]c(=O)c4C(F)(F)F)c(=O)c3cc2F)ncc1C(F)(F)F [Example 288, 6-fluoro-7-(4-((2R,3R)-3-hydroxy-2-methylazetidin-1-yl)-5-(trifluoromethyl)pyrimidin-2-yl)-3-((S)-4-((6-oxo-5-(trifluoromethyl)-1,6-dihydropyridazin-4-yl)amino)pentyl)quinazolin-4(3H)-one]	10.5 nM
C[C@@H](CCCn1ccc2cc(-c3ncc(C(F)(F)F)cc3C#N)c(F)cc2c1=O)Nc1cn[nH]c(=O)c1C(F)(F)F [Example 289, (S)-2-(7-fluoro-1-oxo-2-(4-((6-oxo-5-(trifluoromethyl)-1,6-dihydropyridazin-4-yl)amino)pentyl)-1,2-dihydroisoquinolin-6-yl)-5-(trifluoromethyl)nicotinonitrile]	108 nM
C[C@@H](CCCn1ccc2cc(-c3nc(N)c(C(F)(F)F)cc3C#N)c(F)cc2c1=O)Nc1cn[nH]c(=O)c1C(F)(F)F [Example 290, (S)-6-amino-2-(7-fluoro-1-oxo-2-(4-((6-oxo-5-(trifluoromethyl)-1,6-dihydropyridazin-4-yl)amino)pentyl)-1,2-dihydroisoquinolin-6-yl)-5-(trifluoromethyl)nicotinonitrile]	21.3 nM
C[C@@H](CCCn1ccc2cc(-c3nc(N)ccc3C#N)c(F)cc2c1=O)Nc1cn[nH]c(=O)c1C(F)(F)F [Example 291, (S)-6-amino-2-(7-fluoro-1-oxo-2-(4-((6-oxo-5-(trifluoromethyl)-1,6-dihydropyridazin-4-yl)amino)pentyl)-1,2-dihydroisoquinolin-6-yl)nicotinonitrile]	709 nM
C[C@@H](CCCn1ccc2cc(-c3ncc4ccsc4n3)c(F)cc2c1=O)Nc1cn[nH]c(=O)c1C(F)(F)F [Example 292, (S)-7-fluoro-2-(4-((6-oxo-5-(trifluoromethyl)-1,6-dihydropyridazin-4-yl)amino)pentyl)-6-(thieno[2,3-d]pyrimidin-2-yl)isoquinolin-1(2H)-one]	16 nM
C[C@@H](CCCn1ccc2cc(-c3ccc(Cl)c(N)n3)c(F)cc2c1=O)Nc1cn[nH]c(=O)c1C(F)(F)F [Example 293, (S)-6-(6-amino-5-chloropyridin-2-yl)-7-fluoro-2-(4-((6-oxo-5-(trifluoromethyl)-1,6-dihydropyridazin-4-yl)amino)pentyl)isoquinolin-1(2H)-one]	5.28 nM
C[C@@H](CCCn1cnc2cc(-c3ccc(Cl)c(N)n3)c(F)cc2c1=O)Nc1cn[nH]c(=O)c1C(F)(F)F [Example 294, (S)-7-(6-amino-5-chloropyridin-2-yl)-6-fluoro-3-(4-((6-oxo-5-(trifluoromethyl)-1,6-dihydropyridazin-4-yl)amino)pentyl)quinazolin-4(3H)-one]	28.8 nM
C[C@@H](CCCn1ccc2cc(-c3ccc(C#N)c(C(F)(F)F)n3)c(F)cc2c1=O)Nc1cn[nH]c(=O)c1C(F)(F)F [Example 295, (S)-6-(7-fluoro-1-oxo-2-(4-((6-oxo-5-(trifluoromethyl)-1,6-dihydropyridazin-4-yl)amino)pentyl)-1,2-dihydroisoquinolin-6-yl)-2-(trifluoromethyl)nicotinonitrile]	2020 nM

Other lines, results leading:

EC50	Compound
10000 nM	O=c1[nH]ncc(N[C@H]2CCC[C@@H](Cn3ccc4cc(-c5nccc(C(F)(F)F)n5)c(F)cc4c3=O)C2)c1C(F)(F)F [Example 272, 7-fluoro-2-(((1R,3S)-3-((6-oxo-5-(trifluoromethyl)-1,6-dihydropyridazin-4-yl)amino)cyclohexyl)methyl)-6-(4-(trifluoromethyl)pyrimidin-2-yl)isoquinolin-1(2H)-one]
78 nM	CNc1cnc(-c2cc3ccn(C[C@@H]4CCC[C@H](Nc5cn[nH]c(=O)c5C(F)(F)F)C4)c(=O)c3cc2F)cn1 [Example 274, 7-fluoro-6-(5-(methylamino)pyrazin-2-yl)-2-(((1R,3S)-3-((6-oxo-5-(trifluoromethyl)-1,6-dihydropyridazin-4-yl)amino)cyclohexyl)methyl)isoquinolin-1(2H)-one]
10.3 nM	Cc1nc(-c2cc3ccn(C[C@@H]4CCC[C@H](Nc5cn[nH]c(=O)c5C(F)(F)F)C4)c(=O)c3cc2F)nc(N)c1Cl [Example 276, 6-(4-amino-5-chloro-6-methylpyrimidin-2-yl)-7-fluoro-2-(((1R,3S)-3-((6-oxo-5-(trifluoromethyl)-1,6-dihydropyridazin-4-yl)amino)cyclohexyl)methyl)isoquinolin-1(2H)-one]
15.5 nM	O=c1[nH]ncc(N[C@H]2CCC[C@@H](Cn3ccc4cc(-c5ccc(C(F)(F)CO)cn5)c(F)cc4c3=O)C2)c1C(F)(F)F [Example 279, 6-(5-(1,1-difluoro-2-hydroxyethyl)pyridin-2-yl)-7-fluoro-2-(((1R,3S)-3-((6-oxo-5-(trifluoromethyl)-1,6-dihydropyridazin-4-yl)amino)cyclohexyl)methyl)isoquinolin-1(2H)-one]
34.8 nM	O=c1[nH]ncc(N[C@H]2CCC[C@@H](Cn3ccc4cc(-c5ccc(Cl)cn5)c(F)cc4c3=O)C2)c1C(F)(F)F [Example 280, 6-(5-chloropyridin-2-yl)-7-fluoro-2-(((1R,3S)-3-((6-oxo-5-(trifluoromethyl)-1,6-dihydropyridazin-4-yl)amino)cyclohexyl)methyl)isoquinolin-1(2H)-one]
113 nM	CC(C)(O)c1ccc(-c2cc3ccn(C[C@@H]4CCC[C@H](Nc5cn[nH]c(=O)c5C(F)(F)F)C4)c(=O)c3cc2F)nc1 [Example 283, 7-fluoro-6-(5-(2-hydroxypropan-2-yl)pyridin-2-yl)-2-(((1R,3S)-3-((6-oxo-5-(trifluoromethyl)-1,6-dihydropyridazin-4-yl)amino)cyclohexyl)methyl)isoquinolin-1(2H)-one]
51.7 nM	CC(C)(O)c1cnc(-c2cc3ccn(C[C@@H]4CCC[C@H](Nc5cn[nH]c(=O)c5C(F)(F)F)C4)c(=O)c3cc2F)nc1 [Example 284, 7-fluoro-6-(5-(2-hydroxypropan-2-yl)pyrimidin-2-yl)-2-(((1R,3S)-3-((6-oxo-5-(trifluoromethyl)-1,6-dihydropyridazin-4-yl)amino)cyclohexyl)methyl)isoquinolin-1(2H)-one]
78.7 nM	O=c1[nH]ncc(N[C@H]2CCC[C@@H](Cn3ccc4cc(-c5ncc(C(F)(F)F)cn5)cc(F)c4c3=O)C2)c1C(F)(F)F [Example 285, 8-fluoro-2-(((1R,3S)-3-((6-oxo-5-(trifluoromethyl)-1,6-dihydropyridazin-4-yl)amino)cyclohexyl)methyl)-6-(5-(trifluoromethyl)pyrimidin-2-yl)isoquinolin-1(2H)-one]
